Like-named read-outs stand apart in the source and are kept apart here.

This note sets out measurements from patent publication US8987195B2 (priority 2012, dated 2015).

In assay [1] the target is HCV NS3/4A protease genotype 1b (Hepatitis C virus genotype 1b, UniProt P26663). Put plainly: HCV NS3/4A protease time-resolved fluorescence (TRF) assay, Ki against genotype 1b. Format: biochemical. The gist of the method: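 Time-resolved fluorescence readout of NS3/4A cleavage of 25 nM europium-labelled peptide over 2.5 h at room temperature, enzyme levels set for signal/background 10–30 (0.2, 0.4, 0.025 nM for 1b, A156T, 3a). Ki by IC50=Ki(1+[S]/KM).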

In another assay the test system is HCV genotype 1b replicon. Briefly: HCV replicon assay, genotype 1b replicon EC50. Conditions: read-out: EC50 [gt-1b]. Format: cell-based, Hepatitis C virus. The gist of the method: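 Readout was replicon RNA copy number, by 32P-probe protection or TaqMan normalized to cellular cyclophilin A RNA, or luciferase activity for luciferase:Neo^r fusion lines. Cells were exposed to serially diluted compound for 24-48 hours without G418, then washed and lysed. EC50 derived from four-parameter fit relative to DMSO.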

The mark [2] stands for this setting: IC50 [gt-1b], NS3/4A protease TRF assay, genotype 1b enzyme 0.2 nM.
Setting [3] is: Hepatitis C virus, HCV replicon, genotype 1b.
Setting [4] is: IC50 [gt-1b] (nM), NS3/4A genotype 1b, enzyme 0.2 nM.
Setting [5] is: Hepatitis C virus, genotype 1b replicon.
Where [6] appears, read: IC50 [gt-1b], NS3/4A protease TRF assay, genotype 1b enzyme 0.2 nM, K+ salt.
Setting [7] is: Hepatitis C virus, HCV replicon, genotype 1b, K+ salt.
Where [8] appears, read: IC50 [gt-1b] (nM), NS3/4A genotype 1b, enzyme 0.2 nM, K+ salt.
The mark [9] stands for this setting: Hepatitis C virus, genotype 1b replicon, K+ salt.

Take `Cc1nc2ccc(F)cc2c2c1O[C@]1(CC2)C[C@H]2C(=O)N[C@]3(C(=O)NS(=O)(=O)C4(C)CC4)C[C@H]3/C=C\CCCCC[C@H](NC(=O)OC(C)(C)C(F)(F)F)C(=O)N2C1` [Example 405, 1,1,1-trifluoro-2-methylpropan-2-yl [(2R,6S,12Z,13aS,14aR,16aS)-9′-fluoro-5′-methyl-14a-{[(1-methylcyclopropyl)sulfonyl]carbamoyl}-5,16-dioxo-1,1′,2′,5,6,7,8,9,10,11,13a,14,14a,15,16,16a-hexadecahydrospiro[cyclopropa[e]pyrrolo[1,2-a][1,4]diazacyclopentadecine-2,3′-pyrano[2,3-c]quinolin]-6-yl]carbamate]: the IC50 (usually the midpoint of a concentration-inhibition curve) in assay [1] (setting [2]) worked out at 0.021 nM. Besides, the EC50 – broadly, the concentration giving half of the maximal effect – in the assay with HCV genotype 1b replicon (setting [3]) stood at 0.813 nM.

`COc1ccc2nc(C(F)(F)F)c3c(c2c1)[C@@H](N1CCOCC1)C[C@]1(C[C@H]2C(=O)N[C@]4(C(=O)NS(=O)(=O)C5(C)CC5)C[C@H]4/C=C\CCCCC[C@H](NC(=O)OC(C)(C)C)C(=O)N2C1)O3` [Example 65, tert-Butyl((1′S,2R,6S,13aS,14aR,16aS,Z)-9′-methoxy-14a-(((1-methylcyclopropyl)sulfonyl)carbamoyl)-1′-morpholino-5,16-dioxo-5′-(trifluoromethyl) -1′,2′,3,5,6,7,8,9,10,11,13a,14,14a,15,16,16a-hexadecahydro-1H-spiro[cyclopropa[e]pyrrolo[1,2-a][1,4]diazacyclopentadecine-2,3′-pyrano[2,3-c]quinolin]-6-yl)carbamate] gave an IC50 in assay [1] (setting [4]) of 0.011 nM. Besides, the EC50 with HCV genotype 1b replicon (setting [5]) came out at 0.148 nM.

With `COC(=O)N[C@H]1CCCCC/C=C\[C@@H]2C[C@@]2(C(=O)NS(=O)(=O)C2(C)CC2)NC(=O)[C@@H]2C[C@]3(CCc4c(c(C5CC5)nc5ccc(OC)cc45)O3)CN2C1=O` [Example 435, methyl [(2R,6S,12Z,13aS,14aR,16aS)-5′-cyclopropyl-9′-methoxy-14a-{[(1-methylcyclopropyl)sulfonyl]carbamoyl}-5,16-dioxo-1,1′,2′,5,6,7,8,9,10,11,13a,14,14a,15,16,16a-hexadecahydrospiro[cyclopropa[e]pyrrolo[1,2-a][1,4]diazacyclopentadecine-2,3′-pyrano[2,3-c]quinolin]-6-yl]carbamate], in assay [1] (setting [6]), the IC50 was 0.069 nM. Further, the EC50 with HCV genotype 1b replicon (setting [7]) amounted to 3.08 nM.

Turning to `Cc1nc2ccc(OC(F)(F)F)cc2c2c1O[C@]1(CC2)C[C@H]2C(=O)N[C@]3(C(=O)NS(=O)(=O)C4(C)CC4)C[C@H]3/C=C\CCCCC[C@H](NC(=O)N3CCCC3)C(=O)N2C1` [Example 246, (2R,6S,12Z,13aS,14aR,16aS)-5′-methyl-N-[(1-methylcyclopropyl)sulfonyl]-5,16-dioxo-6-[(pyrrolidin-1-ylcarbonyl)amino]-9′-(trifluoromethoxy)-1,1′,2′,6,7,8,9,10,11,13a,14,15,16,16a-tetradecahydrospiro[cyclopropa[e]pyrrolo[1,2-a][1,4]diazacyclopentadecine-2,3′-pyrano[2,3-c]quinoline]-14a(5H)-carboxamide], inhibition in assay [1] (setting [4]) was half-maximal at 0.004 nM (IC50). For the same compound, in the assay on HCV genotype 1b replicon (setting [5]), the EC50 was found to be 17.4 nM.

`COCCOc1ccc2nc(C)c3c(c2c1)CC[C@]1(C[C@H]2C(=O)N[C@]4(C(=O)NS(=O)(=O)C5(C)CC5)C[C@H]4/C=C\CCCCC[C@H](NC(=O)OC(C)(C)C)C(=O)N2C1)O3` [Example 409, tert-butyl [(2R,6S,12Z,13aS,14aR,16aS)-9′-(2-methoxyethoxy)-5′-methyl-14a-{[(1-methylcyclopropyl)sulfonyl]carbamoyl}-5,16-dioxo-1,1′,2′,5,6,7,8,9,10,11,13a,14,14a,15,16,16a-hexadecahydrospiro[cyclopropa[e]pyrrolo[1,2-a][1,4]diazacyclopentadecine-2,3′-pyrano[2,3-c]quinolin]-6-yl]carbamate] gave an IC50 in assay [1] (setting [2]) of 0.02 nM. In the assay on HCV genotype 1b replicon (setting [3]), the EC50 stood at 4.73 nM.

For the compound `COc1ccc2c3c(c(C4CC4)nc2c1)O[C@]1(CC3)CC2C(=O)NC3(C(=O)NS(=O)(=O)C4(C)CC4)CC3/C=C\CCCCC[C@H](NC(=O)OC(C)(C)C)C(=O)N2C1` (stereo partly drawn) [Example 70, tert-butyl [(2R,6S,12Z)-5′-cyclopropyl-8′-methoxy-14a-{[(1-methylcyclopropyl)sulfonyl]carbamoyl}-5,16-dioxo-1,1′,2′,5,6,7,8,9,10,11,13a,14,14a,15,16,16a-hexadecahydrospiro[cyclopropa[e]pyrrolo[1,2-a][1,4]diazacyclopentadecine-2,3′-pyrano[2,3-c]quinolin]-6-yl]carbamate], the IC50 in assay [1] (setting [8]) came to 0.028 nM. The EC50 in the assay with HCV genotype 1b replicon (setting [9]) amounted to 1.39 nM.

In turn, `COc1ccc2nc(C(F)F)c3c(c2n1)CC[C@]1(C[C@H]2C(=O)N[C@]4(C(=O)NS(=O)(=O)C5(C)CC5)C[C@H]4/C=C\CCCCC[C@H](NC(=O)OCC(C)(C)C)C(=O)N2C1)O3` [Example 526, 2,2-dimethylpropyl [(2R,6S,12Z,13aS,14aR,16aS)-6′-(difluoromethyl)-2′-methoxy-14a-{[(1-methylcyclopropyl)sulfonyl]carbamoyl}-5,16-dioxo-1,5,6,7,8,9,9′,10,10′,11,13a,14,14a,15,16,16a-hexadecahydrospiro[cyclopropa[e]pyrrolo[1,2-a][1,4]diazacyclopentadecine-2,8′-pyrano[2,3-c][1,5]naphthyridin]-6-yl]carbamate] yielded an IC50 in assay [1] (setting [2]) of 0.005 nM. For the same compound, the EC50 in the assay on HCV genotype 1b replicon (setting [3]) turned out to be 2.59 nM.

`COc1ccc2nc(C)c3c(c2c1)CC[C@]1(C[C@H]2C(=O)N[C@]4(C(=O)NS(=O)(=O)C5(C)CC5)C[C@H]4/C=C\CCCCC[C@H](NC(=O)OC(C(C)(C)C)C(F)(F)F)C(=O)N2C1)O3` (stereo partly drawn) [Example 367, 1,1,1-trifluoro-3,3-dimethylbutan-2-yl [(2R,6S,12Z,13aS,14aR,16aS)-9′-methoxy-5′-methyl-14a-{[(1-methylcyclopropyl)sulfonyl]carbamoyl}-5,16-dioxo-1,1′,2′,5,6,7,8,9,10,11,13a,14,14a,15,16,16a-hexadecahydrospiro[cyclopropa[e]pyrrolo[1,2-a][1,4]diazacyclopentadecine-2,3′-pyrano[2,3-c]quinolin]-6-yl]carbamate] showed an IC50 in assay [1] (setting [2]) of 0.03 nM. For the same compound, the EC50 in the assay with HCV genotype 1b replicon (HCV replicon, genotype 1b) was determined as 3.61 nM.

In the case of `Cc1nc2ccc(OC(F)F)cc2c2c1O[C@]1(CC2)C[C@H]2C(=O)N[C@]3(C(=O)NS(=O)(=O)C4(C)CC4)C[C@H]3/C=C\CCCCC[C@H](NC(=O)OC(C)(C)C(F)(F)F)C(=O)N2C1` [Example 310, 1,1,1-trifluoro-2-methylpropan-2-yl [(2R,6S,12Z,13aS,14aR,16aS)-9′-(difluoromethoxy)-5′-methyl-14a-{[(1-methylcyclopropyl)sulfonyl]carbamoyl}-5,16-dioxo-1,1′,2′,5,6,7,8,9,10,11,13a,14,14a,15,16,16a-hexadecahydrospiro[cyclopropa[e]pyrrolo[1,2-a][1,4]diazacyclopentadecine-2,3′-pyrano[2,3-c]quinolin]-6-yl]carbamate], the IC50 in assay [1] (setting [8]) came to 0.008 nM. Also, the EC50 in the assay with HCV genotype 1b replicon (setting [9]) stood at 5.66 nM.

In assay [1] (setting [4]), `CC(C)OC(=O)N[C@H]1CCCCC/C=C\[C@@H]2C[C@@]2(C(=O)NS(=O)(=O)C2(C)CC2)NC(=O)[C@@H]2C[C@]3(CCc4c(c(C(F)(F)F)nc5ccccc45)O3)CN2C1=O` [Example 157, propan-2-yl [(2R,6S,12Z,13aS,14aR,16aS)-14a-{[(1-methylcyclopropyl)sulfonyl]carbamoyl}-5,16-dioxo-5′-(trifluoromethyl)-1,1′,2′,5,6,7,8,9,10,11,13a,14,14a,15,16,16a-hexadecahydrospiro[cyclopropa[e]pyrrolo[1,2-a][1,4]diazacyclopentadecine-2,3′-pyrano[2,3-c]quinolin]-6-yl]carbamate] showed an IC50 of 0.02 nM. Moreover, the EC50 with HCV genotype 1b replicon (setting [5]) is 1.72 nM.

Take `[2H]C([2H])(F)Oc1ccc2nc(C)c3c(c2c1)[C@H](F)C[C@]1(C[C@H]2C(=O)N[C@]4(C(=O)NS(=O)(=O)C5(C)CC5)C[C@H]4/C=C\CCCCC[C@H](NC(=O)OCC(C)C)C(=O)N2C1)O3` [Example 402, 2-methylpropyl [(1′R,2S,6S,12Z,13aS,14aR,16aS)-1′-fluoro-9′-{[fluoro(^2H2)methyl]oxy}-5′-methyl-14a-{[(1-methylcyclopropyl)sulfonyl]carbamoyl}-5,16-dioxo-1,1′,2′,5,6,7,8,9,10,11,13a,14,14a,15,16,16a-hexadecahydrospiro[cyclopropa[e]pyrrolo[1,2-a][1,4]diazacyclopentadecine-2,3′-pyrano[2,3-c]quinolin]-6-yl]carbamate]: the IC50 in assay [1] (setting [6]) was determined as 0.011 nM. For the same compound, the EC50 in the assay with HCV genotype 1b replicon (setting [7]) worked out at 2.27 nM.

`CC1(S(=O)(=O)NC(=O)[C@@]23C[C@H]2/C=C\CCCCC[C@H](NC(=O)OC2CCCC2)C(=O)N2C[C@@]4(CCc5c(c(C6CC6)nc6ccc(F)cc56)O4)C[C@H]2C(=O)N3)CC1` [Example 145, cyclopentyl [(2R,6S,12Z,13aS,14aR,16aS)-5′-cyclopropyl-9′-fluoro-14a-{[(1-methylcyclopropyl)sulfonyl]carbamoyl}-5,16-dioxo-1,1′,2′,5,6,7,8,9,10,11,13a,14,14a,15,16,16a-hexadecahydrospiro[cyclopropa[e]pyrrolo[1,2-a][1,4]diazacyclopentadecine-2,3′-pyrano[2,3-c]quinolin]-6-yl]carbamate]: in assay [1] (setting [4]), the IC50 was determined as 0.006 nM. Further, the EC50 in the assay with HCV genotype 1b replicon (setting [5]) was determined as 1.16 nM.
